ChEMBL document CHEMBL1201862, “PubChem BioAssay data set” (2004)
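These data come from cells grown in 96-well plates and exposed to compound for 48 hours at five concentrations. GI50: concentration for 50% inhibition of growth.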 Calls of active or inactive are those of the source. Rule as the data show it: active = GI50 up to about 1.1 µM and inactive = higher.

Experiments:
Test in all cases: inhibition of tumour cell growth, NCI panel, 48 h
[1] = test system: Hs-578T
[2] = test system: KM-20L2
[3] = test system: RXF 631
[4] = test system: SNB-78
[5] = test system: HOP-18
[6] = test system: LXFL 529
[7] = test system: DLD-1
[8] = test system: XF498
[9] = test system: DMS-273

Measured: GI50

Cc1ccnc(NC(=S)Nc2ccccc2Cl)c1
inactive: [1] 44.7 µM

Nc1ccc(-c2nc3ccccc3s2)cc1
inactive: [2] 37.8 µM | [3] 19.7 µM | [4] 21.6 µM | [5] 86.9 µM | [6] 17.5 µM | [7] 26.4 µM | [1] 36.1 µM

O=C1OC(c2ccco2)=N/C1=C\c1ccc(Cl)c(Cl)c1
inactive: [1] 36.1 µM

CC(C)(C)c1nc2c(o1)/C(=N\c1ccc(F)cc1)c1ccccc1C2=O
inactive: [8] 1.71 µM | [2] 17.1 µM | [4] 56 µM | [5] 15.2 µM | [9] 1.73 µM | [6] 4.4 µM | [7] 4.11 µM | [1] 6.68 µM

CC[C@@]12CCC(=S)N(CCSc3ccccc3)[C@@H]1c1c(n(S(=O)(=O)c3ccc(OC)cc3)c3ccccc13)CC2
inactive: [1] > 100 µM

O=c1c2cccnc2[nH]c2ccc3cn[nH]c3c12
inactive: [1] 6.21 µM

Oc1cc(-c2ccc(Oc3ccccc3)cc2)nc2cc3c(cc12)OCO3
inactive: [8] > 100 µM | [2] > 100 µM | [9] > 100 µM | [6] > 100 µM | [7] > 100 µM

CC[C@@H]1CC[C@@H]2[C@H](CC[C@]3(C)[C@@H](OC(C)=O)CC[C@@H]23)[C@H]1COC(C)=O
inactive: [1] 25.1 µM

NC(CCCCCP(=O)(c1ccccc1)C1C=CC=CC1)C(=O)O (configuration not stated)
inactive: [1] > 100 µM

CCOC(=O)C1=C(C(C)=O)CSC(c2ccccc2)=N1
inactive: [8] > 100 µM | [2] > 100 µM | [4] > 63.2 µM | [5] > 100 µM | [9] > 100 µM | [7] > 100 µM

CSc1c(C#N)c(=O)n(N)c2[nH]nc(C)c12
inactive: [1] > 100 µM

NS(=O)(=O)c1ccc(NC(=O)C2C(=O)C(=O)N(c3ccc(S(N)(=O)=O)cc3)C2=O)cc1 (configuration not stated)
inactive: [2] > 100 µM | [3] > 100 µM | [4] > 100 µM | [5] > 100 µM | [9] > 100 µM | [6] > 100 µM | [7] > 100 µM

COC(=O)CNCC1OC2OC(C)(C)OC2C1N=[N+]=[N-] (configuration not stated)
inactive: [1] > 100 µM

Cc1ccc(C)c(NC(=O)C(=O)CC(=O)C2CCOC2=O)c1 (configuration not stated)
inactive: [8] > 100 µM | [2] > 100 µM | [4] > 100 µM | [9] > 100 µM | [6] > 100 µM | [7] > 100 µM
